Test results taken from the NIST ThermoML archive (doi:10.1021/je049925a).
± gives the expanded uncertainty stated by the source.

Settings: Liquid; for speed of sound: Sing-around technique in a fixed-path interferometer; for vapor or sublimation pressure: Closed cell (Static) method

## CC(F)F [1,1-difluoroethane]
243.15 K, 138 kPa
  speed of sound: 920.2 ± 1.9 m/s
243.15 K, 442 kPa
  speed of sound: 922.3 ± 1.9 m/s
243.15 K, 595 kPa
  speed of sound: 923.2 ± 1.9 m/s
243.15 K, 1302 kPa
  speed of sound: 927.8 ± 1.9 m/s
243.15 K, 1815 kPa
  speed of sound: 931 ± 1.9 m/s
243.15 K, 2160 kPa
  speed of sound: 933.1 ± 1.9 m/s
243.15 K, 2762 kPa
  speed of sound: 936.9 ± 1.9 m/s
243.15 K, 3217 kPa
  speed of sound: 939.9 ± 1.9 m/s
243.15 K, 3854 kPa
  speed of sound: 943.7 ± 1.9 m/s
243.15 K, 4428 kPa
  speed of sound: 947.1 ± 2 m/s
243.15 K, 5359 kPa
  speed of sound: 952.7 ± 2 m/s
243.15 K, 6355 kPa
  speed of sound: 958.6 ± 2 m/s
243.15 K, 7657 kPa
  speed of sound: 966.2 ± 2 m/s
243.15 K, 8846 kPa
  speed of sound: 973.1 ± 2 m/s
243.15 K, 10231 kPa
  speed of sound: 981 ± 2 m/s
243.15 K, 11681 kPa
  speed of sound: 989 ± 2 m/s
243.15 K, 13279 kPa
  speed of sound: 997.6 ± 2.1 m/s
243.15 K, 14943 kPa
  speed of sound: 1005.5 ± 2.1 m/s
243.15 K, 16723 kPa
  speed of sound: 1015.9 ± 2.1 m/s
243.15 K, 17442 kPa
  speed of sound: 1019.5 ± 2.1 m/s
243.15 K, 18731 kPa
  speed of sound: 1026.3 ± 2.1 m/s
243.15 K, 20194 kPa
  speed of sound: 1033.7 ± 2.1 m/s
243.15 K, 22819 kPa
  speed of sound: 1046.4 ± 2.2 m/s
243.15 K, 25117 kPa
  speed of sound: 1058.6 ± 2.2 m/s
243.15 K, 27154 kPa
  speed of sound: 1068.9 ± 2.2 m/s
243.15 K, 30242 kPa
  speed of sound: 1084.3 ± 2.2 m/s
243.15 K
  vapor or sublimation pressure: 73 ± 5 kPa
263.15 K, 407 kPa
  speed of sound: 822.3 ± 1.7 m/s
263.15 K, 581 kPa
  speed of sound: 823.3 ± 1.7 m/s
263.15 K, 759 kPa
  speed of sound: 824.6 ± 1.7 m/s
263.15 K, 928 kPa
  speed of sound: 825.5 ± 1.7 m/s
263.15 K, 1550 kPa
  speed of sound: 831.3 ± 1.7 m/s
263.15 K, 2228 kPa
  speed of sound: 835.9 ± 1.7 m/s
263.15 K, 2461 kPa
  speed of sound: 837.6 ± 1.7 m/s
263.15 K, 3130 kPa
  speed of sound: 842.9 ± 1.7 m/s
263.15 K, 3429 kPa
  speed of sound: 844.7 ± 1.7 m/s
263.15 K, 3914 kPa
  speed of sound: 848.6 ± 1.8 m/s
263.15 K, 5038 kPa
  speed of sound: 856.2 ± 1.8 m/s
263.15 K, 5789 kPa
  speed of sound: 861.4 ± 1.8 m/s
263.15 K, 6568 kPa
  speed of sound: 866.7 ± 1.8 m/s
263.15 K, 7201 kPa
  speed of sound: 871 ± 1.8 m/s
263.15 K, 7967 kPa
  speed of sound: 876.3 ± 1.8 m/s
263.15 K, 8899 kPa
  speed of sound: 881.9 ± 1.8 m/s
263.15 K, 9893 kPa
  speed of sound: 888.5 ± 1.8 m/s
263.15 K, 11531 kPa
  speed of sound: 898.7 ± 1.9 m/s
263.15 K, 13616 kPa
  speed of sound: 912 ± 1.9 m/s
263.15 K, 15466 kPa
  speed of sound: 922.7 ± 1.9 m/s
263.15 K, 17421 kPa
  speed of sound: 934.4 ± 1.9 m/s
263.15 K, 18552 kPa
  speed of sound: 941 ± 1.9 m/s
263.15 K, 19791 kPa
  speed of sound: 947.4 ± 2 m/s
263.15 K, 21881 kPa
  speed of sound: 959.5 ± 2 m/s
263.15 K, 25895 kPa
  speed of sound: 980.9 ± 2 m/s
263.15 K, 27572 kPa
  speed of sound: 989.5 ± 2 m/s
263.15 K, 29409 kPa
  speed of sound: 998.8 ± 2.1 m/s
263.15 K
  vapor or sublimation pressure: 179 ± 5 kPa
283.15 K, 547 kPa
  speed of sound: 722.7 ± 1.5 m/s
283.15 K, 750 kPa
  speed of sound: 724.6 ± 1.5 m/s
283.15 K, 1038 kPa
  speed of sound: 727.4 ± 1.5 m/s
283.15 K, 1402 kPa
  speed of sound: 731.2 ± 1.5 m/s
283.15 K, 1697 kPa
  speed of sound: 733.8 ± 1.5 m/s
283.15 K, 2322 kPa
  speed of sound: 739.5 ± 1.5 m/s
283.15 K, 2793 kPa
  speed of sound: 743.7 ± 1.5 m/s
283.15 K, 3256 kPa
  speed of sound: 747.8 ± 1.6 m/s
283.15 K, 3975 kPa
  speed of sound: 754 ± 1.6 m/s
283.15 K, 4329 kPa
  speed of sound: 756.9 ± 1.6 m/s
283.15 K, 5020 kPa
  speed of sound: 762.5 ± 1.6 m/s
283.15 K, 6373 kPa
  speed of sound: 773.5 ± 1.6 m/s
283.15 K, 7420 kPa
  speed of sound: 781.9 ± 1.6 m/s
283.15 K, 8061 kPa
  speed of sound: 787 ± 1.6 m/s
283.15 K, 9151 kPa
  speed of sound: 795.4 ± 1.6 m/s
283.15 K, 10246 kPa
  speed of sound: 803.6 ± 1.7 m/s
283.15 K, 11356 kPa
  speed of sound: 811.6 ± 1.7 m/s
283.15 K, 13100 kPa
  speed of sound: 824 ± 1.7 m/s
283.15 K, 14824 kPa
  speed of sound: 835.9 ± 1.7 m/s
283.15 K, 16147 kPa
  speed of sound: 844.8 ± 1.7 m/s
283.15 K, 18020 kPa
  speed of sound: 857 ± 1.8 m/s
283.15 K, 19869 kPa
  speed of sound: 868.3 ± 1.8 m/s
283.15 K, 22681 kPa
  speed of sound: 885.6 ± 1.8 m/s
283.15 K, 24751 kPa
  speed of sound: 897.6 ± 1.9 m/s
283.15 K, 27174 kPa
  speed of sound: 911.6 ± 1.9 m/s
283.15 K, 29569 kPa
  speed of sound: 925.1 ± 1.9 m/s
283.15 K
  vapor or sublimation pressure: 372 ± 5 kPa
298.15 K, 660 kPa
  speed of sound: 648 ± 1.4 m/s
298.15 K, 1153 kPa
  speed of sound: 653.4 ± 1.4 m/s
298.15 K, 1656 kPa
  speed of sound: 658.8 ± 1.4 m/s
298.15 K, 2142 kPa
  speed of sound: 663.6 ± 1.4 m/s
298.15 K, 3104 kPa
  speed of sound: 674.1 ± 1.4 m/s
298.15 K, 3609 kPa
  speed of sound: 679.2 ± 1.4 m/s
298.15 K, 4115 kPa
  speed of sound: 684.3 ± 1.4 m/s
298.15 K, 5023 kPa
  speed of sound: 692.9 ± 1.4 m/s
298.15 K, 5998 kPa
  speed of sound: 702.2 ± 1.5 m/s
298.15 K, 6939 kPa
  speed of sound: 710.9 ± 1.5 m/s
298.15 K, 8037 kPa
  speed of sound: 720.6 ± 1.5 m/s
298.15 K, 9271 kPa
  speed of sound: 731.2 ± 1.5 m/s
298.15 K, 10321 kPa
  speed of sound: 740.1 ± 1.5 m/s
298.15 K, 11735 kPa
  speed of sound: 751.5 ± 1.6 m/s
298.15 K, 13300 kPa
  speed of sound: 763.9 ± 1.6 m/s
298.15 K, 14789 kPa
  speed of sound: 775.3 ± 1.6 m/s
298.15 K, 16388 kPa
  speed of sound: 787.1 ± 1.6 m/s
298.15 K, 18041 kPa
  speed of sound: 799 ± 1.7 m/s
298.15 K, 19521 kPa
  speed of sound: 809.3 ± 1.7 m/s
298.15 K, 20530 kPa
  speed of sound: 816.2 ± 1.7 m/s
298.15 K, 22781 kPa
  speed of sound: 831.1 ± 1.7 m/s
298.15 K, 24289 kPa
  speed of sound: 840.6 ± 1.7 m/s
298.15 K, 26870 kPa
  speed of sound: 856.4 ± 1.8 m/s
298.15 K, 30717 kPa
  speed of sound: 878.8 ± 1.8 m/s
298.15 K
  vapor or sublimation pressure: 595 ± 5 kPa
313.15 K, 1222 kPa
  speed of sound: 575.1 ± 1.2 m/s
313.15 K, 1721 kPa
  speed of sound: 581.7 ± 1.2 m/s
313.15 K, 2288 kPa
  speed of sound: 589.2 ± 1.2 m/s
313.15 K, 2776 kPa
  speed of sound: 595.3 ± 1.2 m/s
313.15 K, 3587 kPa
  speed of sound: 605.3 ± 1.3 m/s
313.15 K, 4184 kPa
  speed of sound: 612.4 ± 1.3 m/s
313.15 K, 4942 kPa
  speed of sound: 621 ± 1.3 m/s
313.15 K, 6282 kPa
  speed of sound: 635.8 ± 1.3 m/s
313.15 K, 7106 kPa
  speed of sound: 644.5 ± 1.3 m/s
313.15 K, 8134 kPa
  speed of sound: 655.1 ± 1.4 m/s
313.15 K, 9180 kPa
  speed of sound: 665.6 ± 1.4 m/s
313.15 K, 9927 kPa
  speed of sound: 672.7 ± 1.4 m/s
313.15 K, 11390 kPa
  speed of sound: 686.3 ± 1.4 m/s
313.15 K, 12765 kPa
  speed of sound: 698.6 ± 1.5 m/s
313.15 K, 15195 kPa
  speed of sound: 719.2 ± 1.5 m/s
313.15 K, 16072 kPa
  speed of sound: 726.4 ± 1.5 m/s
313.15 K, 17264 kPa
  speed of sound: 736 ± 1.5 m/s
313.15 K, 19072 kPa
  speed of sound: 749.8 ± 1.6 m/s
313.15 K, 21055 kPa
  speed of sound: 764.7 ± 1.6 m/s
313.15 K, 22659 kPa
  speed of sound: 776.2 ± 1.6 m/s
313.15 K, 25122 kPa
  speed of sound: 793.3 ± 1.6 m/s
313.15 K, 27530 kPa
  speed of sound: 808.2 ± 1.7 m/s
313.15 K, 29895 kPa
  speed of sound: 822.3 ± 1.7 m/s
313.15 K
  vapor or sublimation pressure: 907 ± 5 kPa
333.15 K, 2129 kPa
  speed of sound: 478.7 ± 1 m/s
333.15 K, 2606 kPa
  speed of sound: 487.2 ± 1 m/s
333.15 K, 3860 kPa
  speed of sound: 507.8 ± 1.1 m/s
333.15 K, 4725 kPa
  speed of sound: 520.6 ± 1.1 m/s
333.15 K, 5932 kPa
  speed of sound: 538 ± 1.1 m/s
333.15 K, 7142 kPa
  speed of sound: 552.1 ± 1.2 m/s
333.15 K, 8008 kPa
  speed of sound: 565.1 ± 1.2 m/s
333.15 K, 9016 kPa
  speed of sound: 577.2 ± 1.2 m/s
333.15 K, 10079 kPa
  speed of sound: 589.7 ± 1.2 m/s
333.15 K, 11228 kPa
  speed of sound: 602.3 ± 1.3 m/s
333.15 K, 13279 kPa
  speed of sound: 623.8 ± 1.3 m/s
333.15 K, 15330 kPa
  speed of sound: 643.8 ± 1.3 m/s
333.15 K, 17092 kPa
  speed of sound: 660.1 ± 1.4 m/s
333.15 K, 18393 kPa
  speed of sound: 671.6 ± 1.4 m/s
333.15 K, 19875 kPa
  speed of sound: 684.3 ± 1.4 m/s
333.15 K, 22222 kPa
  speed of sound: 702.8 ± 1.5 m/s
333.15 K, 24752 kPa
  speed of sound: 723.7 ± 1.5 m/s
333.15 K, 24836 kPa
  speed of sound: 723.7 ± 1.5 m/s
333.15 K, 26902 kPa
  speed of sound: 738.8 ± 1.5 m/s
333.15 K, 29698 kPa
  speed of sound: 758.6 ± 1.6 m/s
333.15 K
  vapor or sublimation pressure: 1499 ± 5 kPa
